In US20250017888A1, “COMPOUNDS FOR TREATING DISEASES ASSOCIATED WITH HYALURONAN OVERPRODUCTION” (THE ROYAL VETERINARY COLLEGE, priority 2021, published 2025):

Assays:
[1] = system: chondrosarcoma cells (SW1353); assay: Alamar blue staining of chondrosarcoma; type: cell-based; conditions: Homo sapiens
Method: The hyaluronan synthase activity (Prehm, P. and Schumacher, U., Biochem. Pharmacol. 2004, 68, 1401-1410), the cytotoxicity of the drugs (O'Brien, J. et al., Eur. J. Biochem. 2000, 267, 5421-5426), proteoglycan synthesis rate, hyaluronan (Prehm, P. J. Rheumatol., 2005, 32, 690-696) and proteoglycan (Bjornsson, S. Anal. Biochem. 1993, 210, 282-291) were determined as described. The effect of the prenylflavonoids on the MRP5 export rate was measured with fluorescein diacetate as described (Schulz, T., Schumacher, U., and Prehm, P., J Biol. Chem., 2007, 282, 20999-21004). The determination of the IC50 values on the phosphodiesterase 5 was performed according to the instructions of BPS Bioscience. The culture of bovine chondrocytes in alginate beads and of explants of bovine cartilage was described previously (Deiters, B. and Prehm, P. Arthritis Res. Ther., 2008, 10, R8; Prehm, P. J. Rheumatol. 2005, 32, 690-696). Osteoarthritic reactions were induced in chondrocytes growing in alginate beads by incubation with medium containing 10 ng/ml of II-17 for 6 days, and in cartilage explants with 10 ng/ml of II-17 and 5 ng/ml of II-1α. The supernatants were withdrawn and stored at −20° C. for later analysis. The explants were weighed and extracted with 1 ml of 4 M guanidinium-HCl for 72 hours at 4° C. The proteoglycan concentrations were determined in the extracts.
Chondrosarcoma cells (SW1353 from the American Type Culture Collection) were grown in Dulbecco's medium supplemented with streptomycin/penicillin (100 units of each/ml), 10% foetal calf serum or in serum free Quantum medium supplemented with streptomycin/penicillin (100 units of each/ml), kanamycin (100 units/ml).

Str/ort mice = assay: Histology and grading of articular cartilage lesions in Str/ort mice; type: in vivo, mouse
Method: At 10-13 weeks of age, 21 male Str/ort mice (n=7/group) were assigned randomly to vehicle, hylin-betaine and xantho-betaine groups and were treated intraperitoneally 18 weeks with either vehicle (5% DMSO in 95% peanut oil), 50 mg/kg compound of Example 1 (“hylin-betaine”) in 5% DMSO and 95% peanut oil or 50 mg/kg compound of Example 2 (“xantho-betaine”) in 5% DMSO and 95% peanut oil. Dissected right knees were fixed in neutral buffered formalin, decalcified (Immunocal, Quartett, Berlin), wax-embedded and 6 μm coronal sections cut. Multiple sections (five/slide) from 120 μm intervals across the whole joint were stained with Tollidine blue (0.1% in 0.1 M acetate buffer, pH 5.6) and AC lesion severity graded. Sections from right vehicle, hylin-betaine and xantho-betaine treated Str/ort joints were stained with Safranin O. Sections were dewaxed, and AC lesion severity was scored in Str/ort mice by the methods of Chambers et al., (Chambers et al Expression of collagen and aggrecan genes in normal and osteoarthritic murine knee joints. Osteoarthritis and cartilage/OARS, Osteoarthritis Research Society. 2002; 10(1):51-61) consistent with an internationally-recognized system. Briefly, grade 0: normal; grade 1: rough surface or superficial zone lesions; grade 2: lesion down to the intermediate zone; grade 3: lesions down to tidemark or loss of AC; grades 4 and 5: AC loss across between 20% and 50% or 50-80% of condylar surface; grade 6: loss with subchondral bone exposure. Multiple slides (˜10), each containing five 6 μm sections sampled at 120 μm intervals spanning each entire joint were graded. Grading in each joint compartment (lateral/medial, tibia/femur) allowed for a maximum (most severe) grade to be assigned in each section, and used to produce an overall ‘average’ maximum grade in each group of mice, for the entire joint and for each compartment. In addition, a mean score was produced for each joint and for each compartment and these similarly used to produce an overall ‘average’ mean grade in each group of mice. Mean grades provide a measure of the ‘extent’ of AC lesion (representing relative volume) in each joint/compartment.

For `COc1cc(O)c(CC=C(C)C)c(O)c1C(=O)/C=C/c1ccc(OC(=O)C[N+](C)(C)C)cc1.[Cl-]` [Xantho-betaine, (E)-2-(4-(3-(2,4-dihydroxy-6-methoxy-3-(3-methylbut-2-en-1-yl)phenyl)-3-oxoprop-1-en-1-yl)phenoxy)-N,N,N-trimethyl-2-oxoethanaminium chloride], the IC50 [1] was 275 µM, the “effect on articular cartilage lesions / development of OA (overall)” value (Str/ort mice; 50 mg/kg intraperitoneally, 18 weeks, vs vehicle) was “no such protection” and the “maximum OA score” value (Str/ort mice; vs vehicle treated Str/ort mice) was “not found to be statistically significant”.
